According to US7816339B2, “Treatments for Flaviviridae virus infection” (priority 2005, dated 2010):

Assays:
Format in all cases: cell-based
[1] = tested on: replicon (luciferase signal), luciferase replicon cell line; experiment: Dose-response luciferase assay in replicon cells; conditions: 2 days incubation, 0.5% DMSO, 10% fetal bovine serum; for EC50: 48 h, read-out: EC50: drug dose necessary to reach a 2-fold decrease in luciferase signal
Experimental: (§1) Cell Culture. Cells of the luciferase replicon cell line (Vrolijk et al., J. Virol. Methods 110:201-209 (2003)) was grown in Dulbecco's minimal essential medium (DMEM) supplemented with 2 mM glutamine, non-essential amino acids (NEAA), 10 mM HEPES, 0.075% sodium bicarbonate, 100 U/ml penicillin and 100 μg/mL streptomycin, and 10% fetal bovine serum. To maintain the selection for replicon, 0.3 mg/mL of G418 were added to the culture media.
Dose-Response and Luciferase Assays. Replicon cells were seeded at 5000 cells/well in 96-well collagen 1-coated Biocoat plates (Becton Dickinson; Palo Alto, Calif.). Twenty-four hrs post-seeding, compounds (see Table 1 below) were added to replicon cells. The final concentration of DMSO was 0.5%, fetal bovine serum was 10%, and G418 was not added. The cells were incubated with the compounds for 2 days, at which point the cells were washed with PBS and lysed in 40 μl Glo Lysis Buffer (Promega; Madison, Wis.). 20 μl of lysates were mixed with 100 μl Luciferase Assay Reagent (Promega) and read on a Microtiter Plate Luminometer MLX (DYNEX Technologies; Chantilly, Va.). The fold of reduction in luciferase signal compared to no compound control was plotted against drug concentration and fitted to the sigmoid dose response model using PRISM software (Graphpad Software Inc.; San Diego, Calif.).
(§2) IC50: drug dose necessary to reach a 2-fold decrease in replicon RNA level. IC90: drug dose necessary to reach a 10-fold decrease in replicon RNA level EC50: drug dose necessary to reach a 2-fold decrease in luciferase signal. EC90: drug dose necessary to reach a 10-fold reduction in luciferase signal. CC50: drug dose necessary to reduce the MTS signal to 50% of that of no drug control TI: CC50/EC50 in 5-2 cells. All units are μM.

[2] = tested on: replicon RNA (amplicon in NS5B), luciferase replicon cell line; experiment: Taqman assay of replicon RNA level in replicon cells; conditions: Taqman real-time PCR, 2 days incubation; for IC50: 48 h, GADPH RNA as endogenous control, read-out: IC50: drug dose necessary to reach a 2-fold decrease in replicon RNA level
Experimental: as §1
Taqman Assay Method. Replicon cells were seeded at 4000 cells/well in 96-well collagen 1-coated Biocoat Plates (Becton Dickinson). Twenty-four hours post-seeding, compounds were added to replicon cells. The final concentration of DMSO was 0.5%, fetal bovine serum was 10%, and no G418 was added. Cells were incubated with compounds for 2 days, at which point the cells were washed with PBS and lysed in 1× cell lysis buffer (Ambion). The replicon RNA level was measured using real time PCR (Taqman assay). The amplicon was located in NS5B. The PCR primers were 5B.2F, ATGGACAGGCGCCCTGA; 5B.2R, […]; the probe sequence was FAM-labeled CACGCCATGCGCTGCGG. GADPH RNA was used as an endogenous control and was amplified in the same reaction as NS5B (multiplex PCR) using primers and VIC-labeled probe recommended by the manufacturer (PE Applied Biosystem). The real-time RT-PCR reactions were run on the ABI PRISM 7900HT Sequence Detection System using the following program: 48° C. for 30 minutes, 95° C. for 10 minutes, 40 cycles of 95° C. for 15 seconds, 60° C. for 1 minute. The ACT values (CT5B-CTGADPH) were plotted against drug concentration and fitted to the sigmoid dose response model using SAS system (SAS Institute, Inc.) or PRISM software (Graphpad Software, Inc.). IC50 was the drug dose response necessary to achieve an increase of 1 in ΔCT over the projected baseline. IC90 was the drug dose response necessary to achieve an increase of 3.2 over the baseline. All Taqman reagents were from PE Applied Biosystem.
as §2

replicon cells = experiment: Cell toxicity assay (MTS) on replicon cells; conditions: for TI: CC50/EC50 in 5-2 cells: ratio CC50/EC50, 5-2 cells; for CC50: MTS assay on replicon cells, read-out: CC50: drug dose necessary to reduce the MTS signal to 50% of that of no drug control
Experimental: (§3) Cell toxicity assay. The toxicity of compounds on the replicon cells were measured by MTS assay following manufacturer's instructions (Promega). Briefly, 20 μl of CellTiter 96®RAQueous One Solution Reagent were added to each well of the 96-well plate containing 100 μl of culture medium. The plates were incubated for 30-60 minutes before reading OD by DYNEX MRX.
as §2

[3] = Cell toxicity assay (MTS) on replicon cells; conditions: human; MTS assay on replicon cells; read-out: CC50: drug dose necessary to reduce the MTS signal to 50% of that of no drug control
Experimental: as §3, §2

SMILES	EC50 [1] [µM]	EC90: drug dose necessary to reach a 10-fold reduction in luciferase signal [1] [μM]	IC50 [2] [µM]	IC90: drug dose necessary to reach a 10-fold decrease in replicon RNA level [2]	TI: CC50/EC50 in 5-2 cells (replicon cells)	CC50 at 2 days [3] [µM]	CC50 (replicon cells) [µM]
O=c1nc(/N=C/N2CCOCC2)ccn1[C@@H]1O[C@H](CO)C(O)C1O (stereo in doubt) [XII, N^4-[Morpholinomethylene]arabinocytidine]	0.02	1.5	> 10	>10 μM	>500	> 10	–
Nc1ccn([C@@H]2O[C@H](CO)[C@@H](O)[C@@H]2O)c(=O)n1 [Cytarabine, reference compound]	0.05	4	~10	>10 μM	>200	> 10	–
NC(=O)c1ncn([C@@H]2O[C@H](CO)[C@@H](O)[C@H]2O)n1 [Ribavirin, 1-β-D-ribofuranosyl-1H-1,2,4-triazole-3-carboxamide, reference compound]	20	80	40 to 100	not reached	~25	~500	–
CC(C)N(C=Nc1ccn([C@@H]2O[C@H](CO)[C@@H](O)[C@@H]2O)c(=O)n1)C(C)C [X, N^4-[(Diisopropylamino)methylene]arabinocytidine]	–	2	–	>10 μM	>300	–	> 10
O=c1nc(N=CN2CCCCC2)ccn1[C@@H]1O[C@H](CO)[C@@H](O)[C@@H]1O [XI, N^4-[Piperidinomethylene]arabinocytidine]	–	8	–	>10 μM	>100	–	> 10
O=c1nc(N=CN2CCCC2)ccn1[C@@H]1O[C@H](CO)[C@@H](O)[C@@H]1O [XIII, N^4-[Pyrrolidinomethylene]arabinocytidine]	–	5	–	>10 μM	>100	–	> 10
